# Experimental data as given in patent US7632933B2, “Corticotropin releasing factor 2 receptor agonists” (priority 2002, dated 2009).
# Peptide text beside a SMILES is read from it.
# Experiments:
# CRF1R = biological target: T1, CRF1R (Homo sapiens, UniProt P34998); assay: CRF1R agonist activity (EC50 and Emax), called comparative CRF binding; format: cell-based; details: CRF1R
# T1 sequence (P34998 24-415): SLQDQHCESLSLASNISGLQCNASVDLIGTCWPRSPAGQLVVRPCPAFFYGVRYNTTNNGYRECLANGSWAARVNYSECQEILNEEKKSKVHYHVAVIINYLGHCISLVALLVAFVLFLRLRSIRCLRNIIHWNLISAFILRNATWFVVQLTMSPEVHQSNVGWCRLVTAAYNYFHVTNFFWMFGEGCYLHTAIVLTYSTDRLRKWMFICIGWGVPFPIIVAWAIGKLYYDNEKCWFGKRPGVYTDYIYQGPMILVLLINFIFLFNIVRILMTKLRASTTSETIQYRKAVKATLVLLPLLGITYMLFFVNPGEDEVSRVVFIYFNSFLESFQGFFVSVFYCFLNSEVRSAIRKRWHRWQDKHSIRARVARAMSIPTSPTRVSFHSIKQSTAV
# Description: (§1) The pharmacological activity and selectivity of the peptides of present invention can be determined using published test procedures. See, e.g, U.S. patent application Ser. No. 09/799,978. Because CRF2R and CRF1R are homologous proteins, it is expected that a certain proportion of agonists for CRF2R will also function as agonists of CRF1R. As discussed above, activation of CRF1R induces activation of the HPA axis since increased corticosteroid production leads to skeletal muscle atrophy. In most cases in which an increase in muscle mass or function is desired, it is not desirable to activate the HPA axis.
# (§2) Because it is desirable to discriminate binding between CRF2R, as compared with CRF1R, the assays described above may be conducted using a cell, or membrane from a cell, which expresses only CRF2R or the assays can be conducted with a recombinant source of CRF2R. Cells expressing both forms of CRFR may be modified using homologous recombination to inactivate or otherwise disable the CRF1R gene. Alternatively, if the source of CRFR contains more than one CRFR type, the background signal produced by the receptor which is not of interest must be subtracted from the signal obtained in the assay. […] Known antagonists of CRFRs include, but are not limited to, antalarmin (CRF1R selective), antisauvagine-30 (CRF2R selective) and astressin (nonselective for CRF1R/CRF2R).
# (§3) Cell-based assays include the steps of contacting cells which express CRF1R or CRF2R with a peptide of the present invention or control and measuring activation of the CRFR by measuring the expression or activity of components of the CRFR signal transduction pathways.
# (§4) For example, after contact with a peptide of the present invention, lysates of the cells can be prepared and assayed for induction of cAMP. cAMP is induced in response to Gαs activation. Because Gαs is activated by receptors other than CRFR and because a test peptide may be exerting its effect through CRFRs or by another mechanism, two control comparisons are relevant for determining whether the peptide increases levels of cAMP via activation of a CRFR. One control compares the cAMP level of cells contacted with the peptide and the cAMP level of cells contacted with a control compound (i.e., the vehicle in which the peptide is dissolved).
# (§5) In one example, cAMP induction is measured with the use of DNA constructs containing the cAMP responsive element linked to any of a variety of reporter genes can be introduced into cells expressing CRFRs. Such reporter genes include, but are not limited to, chloramphenicol acetyltransferase (CAT), luciferase, glucuronide synthetase, growth hormone, fluorescent proteins (e.g., Green Fluorescent Protein), or alkaline phosphatase. Following exposure of the cells to the peptide, the level of reporter gene expression can be quantitated to determine the peptide's ability to increase cAMP levels and thus determine the peptide's ability to activate the CRFR.
# (§6) In addition to using cells expressing full length CRFRs, cells can be engineered which express CRFRs containing the ligand binding domain of the receptor coupled to, or physically modified to contain, reporter elements or to interact with signaling proteins. For example, a wild type CRFR or CRFR fragment can be fused to a G-protein resulting in activation of the fused G-protein upon agonist binding to the CRFR portion of the fusion protein. […] In addition, alternative pathways for induction of the CRE reporter could be eliminated to reduce basal levels.
# CRF2R = biological target: T2, CRF2R (Homo sapiens, UniProt Q13324); assay: CRF2R agonist activity (EC50 and Emax), called comparative CRF binding; format: cell-based; details: CRF2R; for EC50: read-out: CRF2R EC50
# T2 sequence (Q13324 1-411): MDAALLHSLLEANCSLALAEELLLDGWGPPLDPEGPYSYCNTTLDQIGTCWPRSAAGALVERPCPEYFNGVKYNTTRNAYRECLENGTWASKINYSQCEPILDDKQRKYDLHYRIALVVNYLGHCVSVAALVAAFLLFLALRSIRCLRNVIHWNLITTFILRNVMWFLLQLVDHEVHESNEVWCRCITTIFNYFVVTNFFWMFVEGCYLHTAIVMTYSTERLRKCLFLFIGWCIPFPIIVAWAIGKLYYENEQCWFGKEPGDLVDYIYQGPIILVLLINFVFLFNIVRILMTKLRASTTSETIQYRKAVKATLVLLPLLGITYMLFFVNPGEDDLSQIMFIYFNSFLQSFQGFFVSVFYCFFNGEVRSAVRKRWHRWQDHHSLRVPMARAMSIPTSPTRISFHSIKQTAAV
# Description: as §1, §2, §3, §4, §5, §6
SMILES,EC50 (CRF1R; read-out: CRF1R EC50) [nM],EC50 (CRF2R) [nM],CRF1R (Emax %) (CRF1R),CRF2R (Emax %) (CRF2R)
CC[C@H](C)[C@H](N)C(=O)N[C@H](C(=O)N[C@@H](CC(C)C)C(=O)N[C@@H](CO)C(=O)N[C@@H](CC(C)C)C(=O)N[C@@H](CC(=O)O)C(=O)N[C@H](C(=O)N1CCC[C@H]1C(=O)N[C@H](C(=O)NCC(=O)N[C@@H](CC(C)C)C(=O)N[C@@H](CC(C)C)C(=O)N[C@@H](CCC(N)=O)C(=O)N[C@H](C(=O)N[C@@H](CC(C)C)C(=O)N[C@@H](CC(C)C)C(=O)N[C@@H](CCC(=O)O)C(=O)N[C@@H](CCC(N)=O)C(=O)N[C@H](C(=O)N[C@@H](CCCCN)C(=O)N[C@@H](C)C(=O)N[C@@H](CC(N)=O)C(=O)N[C@@H](C)C(=O)N[C@@H](C)C(=O)N[C@@H](CCCNC(=N)N)C(=O)N[C@@H](CCC(=O)O)C(=O)N[C@@H](CCC(N)=O)C(=O)N[C@@H](C)C(=O)N[C@H](C(=O)N[C@H](C(=O)N[C@H](C(=O)N[C@@H](C)C(=O)N[C@@H](CCCNC(=N)N)C(=O)N[C@H](C(=O)N[C@@H](CC(C)C)C(=O)N[C@@H](C)C(=O)N[C@@H](CCCNC(=N)N)C(=O)N[C@H](C(N)=O)C(C)C)[C@@H](C)CC)C(C)C)[C@@H](C)O)[C@@H](C)O)[C@@H](C)O)[C@@H](C)CC)[C@@H](C)CC)C(C)C)C(C)C [compound 116] (H-IVLSLDVPIGLLQILLEQTKANAAREQATTVARILARV-NH2),≥ 100,≥ 100,–,–
CC[C@H](C)[C@H](N)C(=O)N[C@H](C(=O)N[C@@H](CC(C)C)C(=O)N[C@@H](CO)C(=O)N[C@@H](CC(C)C)C(=O)N[C@@H](CC(=O)O)C(=O)N[C@H](C(=O)N1CCC[C@H]1C(=O)N[C@H](C(=O)NCC(=O)N[C@@H](CC(C)C)C(=O)N[C@@H](CC(C)C)C(=O)N[C@@H](CCC(N)=O)C(=O)N[C@H](C(=O)N[C@@H](CC(C)C)C(=O)N[C@@H](CC(C)C)C(=O)N[C@@H](CCC(=O)O)C(=O)N[C@@H](CCC(N)=O)C(=O)N[C@@H](C)C(=O)N[C@@H](CCCCN)C(=O)N[C@@H](C)C(=O)N[C@@H](CCCNC(=N)N)C(=O)N[C@@H](C)C(=O)N[C@@H](C)C(=O)N[C@@H](CCCNC(=N)N)C(=O)N[C@@H](CCC(=O)O)C(=O)N[C@@H](CCC(N)=O)C(=O)N[C@@H](C)C(=O)N[C@H](C(=O)N[C@H](C(=O)N[C@@H](CC(N)=O)C(=O)N[C@@H](C)C(=O)N[C@@H](CCCNC(=N)N)C(=O)N[C@H](C(=O)N[C@@H](CC(C)C)C(=O)N[C@@H](C)C(=O)N[C@@H](CCCNC(=N)N)C(=O)N[C@H](C(N)=O)C(C)C)[C@@H](C)CC)[C@@H](C)O)[C@@H](C)O)[C@@H](C)CC)[C@@H](C)CC)C(C)C)C(C)C [compound 127] (H-IVLSLDVPIGLLQILLEQAKARAAREQATTNARILARV-NH2; N-terminus assumed),–,7.79,(6) %,(94) %
CC[C@H](C)[C@H](N)C(=O)N[C@H](C(=O)N[C@@H](CC(C)C)C(=O)N[C@@H](CO)C(=O)N[C@@H](CC(C)C)C(=O)N[C@@H](CC(=O)O)C(=O)N[C@H](C(=O)N1CCC[C@H]1C(=O)N[C@H](C(=O)NCC(=O)N[C@@H](CC(C)C)C(=O)N[C@@H](CC(C)C)C(=O)N[C@@H](CCC(N)=O)C(=O)N[C@H](C(=O)N[C@@H](CC(C)C)C(=O)N[C@@H](CC(C)C)C(=O)N[C@@H](CCC(=O)O)C(=O)N[C@@H](CCC(N)=O)C(=O)N[C@H](C(=O)N[C@@H](CCCCN)C(=O)N[C@@H](C)C(=O)N[C@@H](CCCNC(=N)N)C(=O)N[C@@H](C)C(=O)N[C@@H](C)C(=O)N[C@@H](CCCNC(=N)N)C(=O)N[C@@H](CCC(=O)O)C(=O)N[C@@H](CCC(N)=O)C(=O)N[C@@H](C)C(=O)N[C@H](C(=O)N[C@H](C(=O)N[C@@H](CC(N)=O)C(=O)N[C@@H](C)C(=O)N[C@@H](CCCNC(=N)N)C(=O)N[C@H](C(=O)N[C@@H](CC(C)C)C(=O)N[C@@H](C)C(=O)N[C@@H](CCCNC(=N)N)C(=O)N[C@H](C(N)=O)C(C)C)[C@@H](C)CC)[C@@H](C)O)[C@@H](C)O)[C@@H](C)O)[C@@H](C)CC)[C@@H](C)CC)C(C)C)C(C)C [compound 129] (H-IVLSLDVPIGLLQILLEQTKARAAREQATTNARILARV-NH2),–,3.83,(12) %,(92) %
